In patent US8999969B2, “Anti-RSV compounds” (Gilead Sciences, Inc., priority 2009, dated 2015):

System: RSV strain A2
Assay: in vitro cytoprotection assay against RSV in Hep2 cells
Format: cell-based
Settings: human respiratory syncytial virus, HEp-2, 96 h; 1 uM compound; RSV-induced cytopathic effect in Hep2 cells, 4 days, Cell TiterGlo; read-out: RSV % inh. @ 1 uM
Procedure: Antiviral activity against RSV was determined using an in vitro cytoprotection assay in Hep2 cells. […] The method used is similar to methods previously described in Chapman J et al., “RSV604 a novel inhibitor of respiratory syncytial virus replication,” Antimicrob Agents Chemother, 51(9):3346-53 (2007).
Hep2 cells were obtained from ATCC (Manassas, Va.) and maintained in MEM media supplemented with 10% fetal bovine serum and penicillin/streptomycin. Cells were passaged twice a week and kept at subconfluent stage. Commercial stock of RSV strain A2 (Advanced Biotechnologies, Columbia, Md.) was titered before compound testing to determine the appropriate dilution of the virus stock that generates desirable cytopathic effect in Hep2 cells.
For antiviral tests, Hep2 cells were seeded into 96-well plates 24 hours before the assay at a density of 3,000 cells/well. On a separate 96well plate, tested compounds were serially diluted in cell culture media. Eight concentrations in 3-fold serial dilution increments were prepared for each tested compound and 100 uL/well of each dilution was transferred in duplicate onto plates with seeded Hep2 cells. Subsequently, appropriate dilution of virus stock previously determined by titration was prepared in cell culture media and 100 uL/well was added to test plates containing cells and serially diluted compounds. Each plate included three wells of infected untreated cells and three wells of uninfected cells that served as 0% and 100% virus inhibition control, respectively. Following the infection with RSV, testing plates were incubated for 4 days in a tissue culture incubator. After the incubation, RSV-induced cytopathic effect was determined using a Cell TiterGlo reagent (Promega, Madison, Wis.) followed by a luminescence read-out. The percentage inhibition was calculated for each tested concentration relative to the 0% and 100% inhibition controls and the EC50 value for each compound was determined by non-linear regression as a concentration inhibiting the RSV-induced cytopathic effect by 50%. Ribavirin (purchased from Sigma, St. Louis, Mo.) was used as a positive control for antiviral activity.

| Structure (SMILES) | inhibition at 1 µM [%] |
| --- | --- |
| O=C(NC1CC1)c1cc2c(s1)-c1ccccc1N(C(=O)c1ccc(NC(=O)c3cccnc3N3CCC(F)(F)C3)cc1)CC2 [Example 9] | 100 |
| O=C(NCc1cccs1)c1cc2c(s1)-c1ccccc1N(C(=O)c1ccc(NC(=O)c3cccnc3N3CCCC3)cc1)CC2 [Example 48] | 100 |
| COc1ccc(C(=O)Nc2ccc(C(=O)N3CCc4cc(C(=O)NC5CC5)sc4-c4ccccc43)cc2)cc1 [Example 15] | 97 |
